Laboratory results published in ChEMBL document CHEMBL3797029, “Purinylpyridinylamino-based DFG-in/αC-helix-out B-Raf inhibitors: Applying mutant versus wild-type B-Raf selectivity indices for compound profiling” (Bioorg Med Chem, 2016).
pIC50: −log10 of the molar value.

How the values were obtained:
[1] = target: Mitogen-activated protein kinase kinase kinase kinase 1 (Homo sapiens) (UniProt Q92918); assay: Inhibition of full length wild type human HPK1 expressed in bacterial system assessed as enzyme activity at 1 uM relative to control; design: scale not given: the % may be the effect or the level left
Chain of Mitogen-activated protein kinase kinase kinase kinase 1 (Homo sapiens) (Q92918 whole entry, looked up): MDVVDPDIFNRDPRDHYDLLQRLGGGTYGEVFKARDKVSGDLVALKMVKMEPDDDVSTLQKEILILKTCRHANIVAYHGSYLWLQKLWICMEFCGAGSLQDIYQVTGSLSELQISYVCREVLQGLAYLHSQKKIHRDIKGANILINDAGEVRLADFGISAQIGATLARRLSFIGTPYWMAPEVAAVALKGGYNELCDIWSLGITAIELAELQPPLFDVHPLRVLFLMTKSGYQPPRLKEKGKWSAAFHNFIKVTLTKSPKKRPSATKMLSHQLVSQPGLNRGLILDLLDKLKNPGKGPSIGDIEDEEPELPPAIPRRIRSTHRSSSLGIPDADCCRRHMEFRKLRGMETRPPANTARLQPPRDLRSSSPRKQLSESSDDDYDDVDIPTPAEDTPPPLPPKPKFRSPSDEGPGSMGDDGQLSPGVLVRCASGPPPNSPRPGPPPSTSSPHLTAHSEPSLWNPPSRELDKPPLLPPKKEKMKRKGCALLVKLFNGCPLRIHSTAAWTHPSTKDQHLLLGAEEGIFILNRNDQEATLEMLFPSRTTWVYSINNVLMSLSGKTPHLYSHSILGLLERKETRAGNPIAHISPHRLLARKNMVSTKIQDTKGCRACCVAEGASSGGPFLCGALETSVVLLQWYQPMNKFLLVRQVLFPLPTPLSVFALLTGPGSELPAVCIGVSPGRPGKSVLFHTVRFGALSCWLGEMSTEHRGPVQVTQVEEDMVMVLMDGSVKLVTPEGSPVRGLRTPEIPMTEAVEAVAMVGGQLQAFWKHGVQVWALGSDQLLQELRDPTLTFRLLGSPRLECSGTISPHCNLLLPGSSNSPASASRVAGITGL

[2] = target: MAP kinase-interacting serine/threonine-protein kinase 1 (Homo sapiens) (UniProt Q9BUB5); assay: Inhibition of full length wild type human MKNK1 expressed in mammalian system assessed as enzyme activity at 1 uM relative to control; design: scale not given: the % may be the effect or the level left
[3] = target: Tyrosine-protein kinase Fyn (Homo sapiens) (UniProt P06241); assay: Inhibition of partial length wild type human FYN expressed in bacterial system assessed as enzyme activity at 1 uM relative to control; design: scale not given: the % may be the effect or the level left
[4] = target: Serine/threonine-protein kinase MARK1 (Homo sapiens) (UniProt Q9P0L2); assay: Inhibition of partial length wild type human MARK1 expressed in bacterial system assessed as enzyme activity at 1 uM relative to control; design: scale not given: the % may be the effect or the level left
[5] = target: Protein-tyrosine kinase 6 (Homo sapiens) (UniProt Q13882); assay: Inhibition of partial length wild type human BRK expressed in bacterial system assessed as enzyme activity at 1 uM relative to control; design: scale not given: the % may be the effect or the level left
[6] = target: Dual specificity mitogen-activated protein kinase kinase 5 (Homo sapiens) (UniProt Q13163); assay: Inhibition of partial length wild type human MEK5 expressed in mammalian system assessed as enzyme activity at 1 uM relative to control; design: scale not given: the % may be the effect or the level left
Chain of Dual specificity mitogen-activated protein kinase kinase 5 (Homo sapiens) (Q13163 whole entry): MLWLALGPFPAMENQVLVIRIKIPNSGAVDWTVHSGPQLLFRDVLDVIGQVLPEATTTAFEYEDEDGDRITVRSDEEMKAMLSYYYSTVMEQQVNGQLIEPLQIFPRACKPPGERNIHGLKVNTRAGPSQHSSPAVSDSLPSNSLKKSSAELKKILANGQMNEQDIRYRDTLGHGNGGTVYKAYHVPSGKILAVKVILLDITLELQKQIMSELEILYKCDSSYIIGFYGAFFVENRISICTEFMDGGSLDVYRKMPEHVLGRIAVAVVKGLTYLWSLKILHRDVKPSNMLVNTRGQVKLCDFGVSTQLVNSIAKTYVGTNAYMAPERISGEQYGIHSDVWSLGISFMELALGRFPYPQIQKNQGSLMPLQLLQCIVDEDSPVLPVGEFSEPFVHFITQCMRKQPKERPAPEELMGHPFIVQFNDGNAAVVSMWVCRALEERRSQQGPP

[7] = target: Rho-associated protein kinase 2 (Homo sapiens) (UniProt O75116); assay: Inhibition of partial length wild type human ROCK2 expressed in mammalian system assessed as enzyme activity at 1 uM relative to control; design: scale not given: the % may be the effect or the level left
[8] = target: Myotonin-protein kinase (Homo sapiens) (UniProt Q09013); assay: Inhibition of partial length wild type human DMPK expressed in bacterial system assessed as enzyme activity at 1 uM relative to control; design: scale not given: the % may be the effect or the level left
Chain of Myotonin-protein kinase (Homo sapiens) (Q09013 whole entry): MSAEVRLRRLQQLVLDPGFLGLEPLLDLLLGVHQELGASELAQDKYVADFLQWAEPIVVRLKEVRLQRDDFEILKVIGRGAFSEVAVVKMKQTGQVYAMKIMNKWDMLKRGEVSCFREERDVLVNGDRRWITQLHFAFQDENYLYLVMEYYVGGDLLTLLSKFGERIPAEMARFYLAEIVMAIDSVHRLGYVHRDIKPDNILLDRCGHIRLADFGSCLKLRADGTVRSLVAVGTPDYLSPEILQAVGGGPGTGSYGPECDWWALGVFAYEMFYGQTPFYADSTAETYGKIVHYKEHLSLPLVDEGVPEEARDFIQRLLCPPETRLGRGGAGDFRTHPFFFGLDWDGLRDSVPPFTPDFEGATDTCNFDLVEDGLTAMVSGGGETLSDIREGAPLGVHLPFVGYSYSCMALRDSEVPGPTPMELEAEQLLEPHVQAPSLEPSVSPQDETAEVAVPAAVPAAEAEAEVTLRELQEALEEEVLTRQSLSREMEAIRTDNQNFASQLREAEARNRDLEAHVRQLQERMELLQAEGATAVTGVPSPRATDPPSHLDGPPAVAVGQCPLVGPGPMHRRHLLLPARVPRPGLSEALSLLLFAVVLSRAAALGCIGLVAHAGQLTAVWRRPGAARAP

[9] = target: Calcium/calmodulin-dependent protein kinase type IV (Homo sapiens) (UniProt Q16566); assay: Inhibition of partial length wild type human CAMK4 expressed in bacterial system assessed as enzyme activity at 1 uM relative to control; design: scale not given: the % may be the effect or the level left
[10] = target: Dual specificity protein kinase CLK4 (Homo sapiens) (UniProt Q9HAZ1); assay: Inhibition of partial length wild type human CLK4 expressed in bacterial system assessed as enzyme activity at 1 uM relative to control; design: scale not given: the % may be the effect or the level left
Chain of Dual specificity protein kinase CLK4 (Homo sapiens) (Q9HAZ1 whole entry, looked up): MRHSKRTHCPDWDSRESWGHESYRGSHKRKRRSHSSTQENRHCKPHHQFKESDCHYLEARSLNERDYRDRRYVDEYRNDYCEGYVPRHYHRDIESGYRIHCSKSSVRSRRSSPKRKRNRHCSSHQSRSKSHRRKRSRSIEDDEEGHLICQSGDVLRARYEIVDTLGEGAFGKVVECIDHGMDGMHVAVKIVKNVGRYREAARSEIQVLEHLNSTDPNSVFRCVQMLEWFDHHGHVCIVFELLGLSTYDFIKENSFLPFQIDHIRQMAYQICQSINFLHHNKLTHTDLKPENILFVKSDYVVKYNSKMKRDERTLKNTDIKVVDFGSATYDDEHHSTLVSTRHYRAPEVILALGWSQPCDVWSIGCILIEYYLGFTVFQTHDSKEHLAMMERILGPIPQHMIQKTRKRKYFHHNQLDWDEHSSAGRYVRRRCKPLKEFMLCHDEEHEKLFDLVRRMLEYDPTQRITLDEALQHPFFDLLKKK

[11] = target: cGMP-dependent protein kinase 1 (Homo sapiens) (UniProt Q13976); assay: Inhibition of partial length wild type human PRKG1 expressed in bacterial system assessed as enzyme activity at 1 uM relative to control; design: scale not given: the % may be the effect or the level left
[12] = target: Casein kinase I isoform delta (Homo sapiens) (UniProt P48730); assay: Inhibition of full length wild type human CSNK1D expressed in bacterial system assessed as enzyme activity at 1 uM relative to control; design: scale not given: the % may be the effect or the level left
[13] = target: Serine/threonine-protein kinase B-raf (Homo sapiens, UniProt P15056); assay: Inhibition of wild type B-Raf (unknown origin) assessed as MEK1 phosphorylation using MEK1-Avitag as substrate after 1 hr by HTRF assay
[14] = target: Serine/threonine-protein kinase pim-1 (Homo sapiens) (UniProt P11309); assay: Inhibition of partial length wild type human PIM1 expressed in bacterial system assessed as enzyme activity at 1 uM relative to control; design: scale not given: the % may be the effect or the level left
Chain of Serine/threonine-protein kinase pim-1 (Homo sapiens) (P11309 whole entry, looked up): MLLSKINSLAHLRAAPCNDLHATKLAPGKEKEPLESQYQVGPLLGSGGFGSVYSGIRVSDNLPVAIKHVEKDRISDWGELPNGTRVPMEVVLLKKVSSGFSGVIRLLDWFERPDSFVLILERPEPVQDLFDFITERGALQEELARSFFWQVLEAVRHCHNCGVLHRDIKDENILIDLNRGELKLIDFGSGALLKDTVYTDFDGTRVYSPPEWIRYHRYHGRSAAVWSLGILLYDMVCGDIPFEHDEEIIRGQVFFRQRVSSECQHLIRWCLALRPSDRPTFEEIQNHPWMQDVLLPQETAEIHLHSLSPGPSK

[15] = target: Casein kinase II subunit alpha (Homo sapiens) (UniProt P68400); assay: Inhibition of full length wild type human CSNK2A1 expressed in mammalian system assessed as enzyme activity at 1 uM relative to control; design: scale not given: the % may be the effect or the level left
[16] = target: Mitogen-activated protein kinase 14 (Homo sapiens) (UniProt Q16539); assay: Inhibition of full length wild type human p38alpha expressed in bacterial system assessed as enzyme activity at 1 uM relative to control; design: scale not given: the % may be the effect or the level left
Chain of Mitogen-activated protein kinase 14 (Homo sapiens) (Q16539 whole entry): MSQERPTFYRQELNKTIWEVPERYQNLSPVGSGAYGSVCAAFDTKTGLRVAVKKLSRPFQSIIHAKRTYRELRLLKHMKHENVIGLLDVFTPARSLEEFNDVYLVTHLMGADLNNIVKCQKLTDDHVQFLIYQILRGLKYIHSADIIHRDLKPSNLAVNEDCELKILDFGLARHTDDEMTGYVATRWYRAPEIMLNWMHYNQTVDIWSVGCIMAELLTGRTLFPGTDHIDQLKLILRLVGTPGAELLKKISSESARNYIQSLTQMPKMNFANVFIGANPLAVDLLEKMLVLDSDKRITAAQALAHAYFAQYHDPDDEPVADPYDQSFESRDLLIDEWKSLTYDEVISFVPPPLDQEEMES

[17] = target: Mitogen-activated protein kinase 12 (Homo sapiens) (UniProt P53778); assay: Inhibition of full length wild type human p38gamma expressed in bacterial system assessed as enzyme activity at 1 uM relative to control; design: scale not given: the % may be the effect or the level left
[18] = target: Fibroblast growth factor receptor 1 (Homo sapiens) (UniProt P11362); assay: Inhibition of partial length wild type human FGFR1 expressed in bacterial system assessed as enzyme activity at 1 uM relative to control; design: scale not given: the % may be the effect or the level left
Chain of Fibroblast growth factor receptor 1 (Homo sapiens) (P11362 22-822 limits assumed): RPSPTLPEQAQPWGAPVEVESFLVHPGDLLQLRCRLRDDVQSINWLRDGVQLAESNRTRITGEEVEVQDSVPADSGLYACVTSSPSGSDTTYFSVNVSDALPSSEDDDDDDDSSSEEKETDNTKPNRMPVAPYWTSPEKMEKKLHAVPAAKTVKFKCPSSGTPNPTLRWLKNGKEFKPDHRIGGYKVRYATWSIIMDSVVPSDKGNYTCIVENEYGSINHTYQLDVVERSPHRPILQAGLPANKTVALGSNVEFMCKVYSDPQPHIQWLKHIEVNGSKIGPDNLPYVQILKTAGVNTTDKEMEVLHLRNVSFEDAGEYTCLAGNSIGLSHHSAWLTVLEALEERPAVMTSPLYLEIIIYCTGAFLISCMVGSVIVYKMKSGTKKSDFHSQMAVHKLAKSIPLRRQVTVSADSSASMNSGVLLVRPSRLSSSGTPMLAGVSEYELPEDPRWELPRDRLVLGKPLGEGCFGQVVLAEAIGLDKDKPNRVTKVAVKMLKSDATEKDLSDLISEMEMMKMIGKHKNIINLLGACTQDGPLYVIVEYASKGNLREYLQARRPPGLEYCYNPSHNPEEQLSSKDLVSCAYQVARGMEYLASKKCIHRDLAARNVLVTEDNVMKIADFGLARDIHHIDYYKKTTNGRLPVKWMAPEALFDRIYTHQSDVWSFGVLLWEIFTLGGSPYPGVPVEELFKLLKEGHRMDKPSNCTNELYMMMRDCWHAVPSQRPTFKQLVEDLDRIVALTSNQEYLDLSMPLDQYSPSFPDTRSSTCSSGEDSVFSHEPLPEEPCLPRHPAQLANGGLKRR

[19] = target: Phosphatidylinositol 4,5-bisphosphate 3-kinase catalytic subunit delta isoform (Homo sapiens) (UniProt O00329); assay: Inhibition of partial length wild type human PIK3CD expressed in mammalian system assessed as enzyme activity at 1 uM relative to control; design: scale not given: the % may be the effect or the level left
[20] = target: Tyrosine-protein kinase ABL1 (Homo sapiens) (UniProt P00519); assay: Inhibition of partial length wild type nonphosphorylated human ABL1 expressed in mammalian system assessed as enzyme activity at 1 uM relative to control; design: scale not given: the % may be the effect or the level left
[21] = target: Wee1-like protein kinase (Homo sapiens) (UniProt P30291); assay: Inhibition of partial length wild type human WEE1 expressed in bacterial system assessed as enzyme activity at 1 uM relative to control; design: scale not given: the % may be the effect or the level left
[22] = target: Ribosomal protein S6 kinase alpha-5 (Homo sapiens) (UniProt O75582); assay: Inhibition of partial length wild type human RPS6KA5 (N-terminal Kinase Domain 1) expressed in bacterial system assessed as enzyme activity at 1 uM relative to control; design: scale not given: the % may be the effect or the level left
Chain of Ribosomal protein S6 kinase alpha-5 (Homo sapiens) (O75582 whole entry, looked up, the tested form may be a part): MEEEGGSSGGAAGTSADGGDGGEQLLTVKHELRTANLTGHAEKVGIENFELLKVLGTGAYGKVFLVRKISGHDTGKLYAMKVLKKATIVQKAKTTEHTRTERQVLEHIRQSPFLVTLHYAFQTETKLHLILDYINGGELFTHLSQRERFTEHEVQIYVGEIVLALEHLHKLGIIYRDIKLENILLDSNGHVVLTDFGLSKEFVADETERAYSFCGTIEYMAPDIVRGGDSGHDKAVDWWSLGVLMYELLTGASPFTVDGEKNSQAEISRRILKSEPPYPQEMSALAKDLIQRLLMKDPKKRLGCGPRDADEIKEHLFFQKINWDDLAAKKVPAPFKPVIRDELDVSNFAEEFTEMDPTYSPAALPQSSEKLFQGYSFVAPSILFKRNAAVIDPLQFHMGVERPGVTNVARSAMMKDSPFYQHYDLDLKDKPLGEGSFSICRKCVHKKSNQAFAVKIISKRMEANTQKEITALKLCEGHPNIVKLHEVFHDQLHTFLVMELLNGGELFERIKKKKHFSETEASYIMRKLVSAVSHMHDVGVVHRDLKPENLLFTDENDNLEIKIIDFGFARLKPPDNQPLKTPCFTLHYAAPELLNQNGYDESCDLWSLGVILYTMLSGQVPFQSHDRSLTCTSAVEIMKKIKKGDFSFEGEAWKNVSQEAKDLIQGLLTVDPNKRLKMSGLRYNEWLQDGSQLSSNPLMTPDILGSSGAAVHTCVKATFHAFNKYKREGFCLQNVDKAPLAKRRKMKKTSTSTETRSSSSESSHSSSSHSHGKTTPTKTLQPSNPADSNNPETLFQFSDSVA

[23] = target: Mitogen-activated protein kinase kinase kinase 7 (Homo sapiens) (UniProt O43318); assay: Inhibition of partial length wild type human TAK1 expressed in mammalian system assessed as enzyme activity at 1 uM relative to control; design: scale not given: the % may be the effect or the level left
[24] = target: Ephrin type-A receptor 2 (Homo sapiens) (UniProt P29317); assay: Inhibition of partial length wild type human EPHA2 expressed in bacterial system assessed as enzyme activity at 1 uM relative to control; design: scale not given: the % may be the effect or the level left
[25] = target: Epidermal growth factor receptor (Homo sapiens) (UniProt P00533); assay: Inhibition of partial length wild type human EGFR expressed in bacterial system assessed as enzyme activity at 1 uM relative to control; design: scale not given: the % may be the effect or the level left
[26] = target: Serine/threonine-protein kinase TAO2 (Homo sapiens) (UniProt Q9UL54); assay: Inhibition of partial length wild type human TAOK2 expressed in mammalian system assessed as enzyme activity at 1 uM relative to control; design: scale not given: the % may be the effect or the level left
[27] = target: Ephrin type-B receptor 3 (Homo sapiens) (UniProt P54753); assay: Inhibition of partial length wild type human EPHB3 expressed in bacterial system assessed as enzyme activity at 1 uM relative to control; design: scale not given: the % may be the effect or the level left
[28] = target: Phosphatidylinositol 4,5-bisphosphate 3-kinase catalytic subunit alpha isoform (Homo sapiens) (UniProt P42336); assay: Inhibition of partial length wild type human PIK3CA expressed in mammalian system assessed as enzyme activity at 1 uM relative to control; design: scale not given: the % may be the effect or the level left
[29] = target: Serine/threonine-protein kinase PLK4 (Homo sapiens) (UniProt O00444); assay: Inhibition of partial length wild type human PLK4 expressed in mammalian system assessed as enzyme activity at 1 uM relative to control; design: scale not given: the % may be the effect or the level left
[30] = target: Serine/threonine-protein kinase Nek6 (Homo sapiens) (UniProt Q9HC98); assay: Inhibition of full length wild type human NEK6 expressed in bacterial system assessed as enzyme activity at 1 uM relative to control; design: scale not given: the % may be the effect or the level left
Chain of Serine/threonine-protein kinase Nek6 (Homo sapiens) (Q9HC98 whole entry): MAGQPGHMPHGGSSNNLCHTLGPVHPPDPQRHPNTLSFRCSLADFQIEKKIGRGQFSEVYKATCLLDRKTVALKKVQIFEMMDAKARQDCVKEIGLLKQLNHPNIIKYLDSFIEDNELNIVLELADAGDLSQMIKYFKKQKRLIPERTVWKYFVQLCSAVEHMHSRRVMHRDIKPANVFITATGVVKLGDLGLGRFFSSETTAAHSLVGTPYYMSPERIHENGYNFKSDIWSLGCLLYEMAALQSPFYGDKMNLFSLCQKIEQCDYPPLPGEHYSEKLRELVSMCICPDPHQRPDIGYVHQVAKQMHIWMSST

[31] = target: High affinity nerve growth factor receptor (Homo sapiens) (UniProt P04629); assay: Inhibition of partial length wild type human TRKA expressed in mammalian system assessed as enzyme activity at 1 uM relative to control; design: scale not given: the % may be the effect or the level left
[32] = target: TGF-beta receptor type-1 (Homo sapiens) (UniProt P36897); assay: Inhibition of partial length wild type human TGFBR1 expressed in bacterial system assessed as enzyme activity at 1 uM relative to control; design: scale not given: the % may be the effect or the level left

## CN(C)S(=O)(=O)Nc1ccc(F)c(Nc2ncccc2-c2ncnc3[nH]cnc23)c1F
[1]
  Activity: 87%
[2]
  Activity: 77%
[3]
  Activity: 64%
[4]
  Activity: 100%
[5]
  Activity: 14%
[6]
  Activity: 0.9%
[7]
  Activity: 92%
[8]
  Activity: 100%
[9]
  Activity: 83%
[10]
  Activity: 70%
[11]
  Activity: 92%
[12]
  Activity: 83%
[13]
  pIC50: 7.05
[14]
  Activity: 83%
[15]
  Activity: 64%
[16]
  Activity: 91%
[17]
  Activity: 100%
[18]
  Activity: 83%
[19]
  Activity: 37%
[20]
  Activity: 96%
[21]
  Activity: 90%
[22]
  Activity: 100%
[23]
  Activity: 70%
[24]
  Activity: 74%
[25]
  Activity: 66%
[26]
  Activity: 94%
[27]
  Activity: 94%
[28]
  Activity: 100%
[29]
  Activity: 91%
[30]
  Activity: 79%
[31]
  Activity: 100%
[32]
  Activity: 65%
